Laboratory results reported in US20250340574A1, “MODULATORS OF CYSTIC FIBROSIS TRANSMEMBRANE CONDUCTANCE REGULATOR” (Vertex Pharmaceuticals Incorporated, priority 2022, published 2025).
pEC50: −log10 of the molar value.

Experiments:
Assay type in all cases: cell-based
[1] = target: T1, CFTR (F508del/MF-HBE cells) (Homo sapiens, UniProt P13569, DEL508-508); assay: Ussing chamber assay of CFTR-mediated short-circuit currents, Assay A (0.1 μM to 25 μM, 6 concentrations); conditions: with 33 nM potentiator and 18 μM Tezacaftor, 20% human serum; for Emax: 18-24 hours, read-out: A Max activity (%)
T1 construct: human bronchial epithelial (HBE) cells derived from CF subjects heterozygous for F508del and a minimal function CFTR mutation (F508del/MF-HBE); endogenous in cells; host or cells: Primary human bronchial epithelial cells from CF subjects (F508del/MF genotype), differentiated at an air-liquid interface
T1 sequence (P13569 with tags, fused parts or gaps DEL508-508): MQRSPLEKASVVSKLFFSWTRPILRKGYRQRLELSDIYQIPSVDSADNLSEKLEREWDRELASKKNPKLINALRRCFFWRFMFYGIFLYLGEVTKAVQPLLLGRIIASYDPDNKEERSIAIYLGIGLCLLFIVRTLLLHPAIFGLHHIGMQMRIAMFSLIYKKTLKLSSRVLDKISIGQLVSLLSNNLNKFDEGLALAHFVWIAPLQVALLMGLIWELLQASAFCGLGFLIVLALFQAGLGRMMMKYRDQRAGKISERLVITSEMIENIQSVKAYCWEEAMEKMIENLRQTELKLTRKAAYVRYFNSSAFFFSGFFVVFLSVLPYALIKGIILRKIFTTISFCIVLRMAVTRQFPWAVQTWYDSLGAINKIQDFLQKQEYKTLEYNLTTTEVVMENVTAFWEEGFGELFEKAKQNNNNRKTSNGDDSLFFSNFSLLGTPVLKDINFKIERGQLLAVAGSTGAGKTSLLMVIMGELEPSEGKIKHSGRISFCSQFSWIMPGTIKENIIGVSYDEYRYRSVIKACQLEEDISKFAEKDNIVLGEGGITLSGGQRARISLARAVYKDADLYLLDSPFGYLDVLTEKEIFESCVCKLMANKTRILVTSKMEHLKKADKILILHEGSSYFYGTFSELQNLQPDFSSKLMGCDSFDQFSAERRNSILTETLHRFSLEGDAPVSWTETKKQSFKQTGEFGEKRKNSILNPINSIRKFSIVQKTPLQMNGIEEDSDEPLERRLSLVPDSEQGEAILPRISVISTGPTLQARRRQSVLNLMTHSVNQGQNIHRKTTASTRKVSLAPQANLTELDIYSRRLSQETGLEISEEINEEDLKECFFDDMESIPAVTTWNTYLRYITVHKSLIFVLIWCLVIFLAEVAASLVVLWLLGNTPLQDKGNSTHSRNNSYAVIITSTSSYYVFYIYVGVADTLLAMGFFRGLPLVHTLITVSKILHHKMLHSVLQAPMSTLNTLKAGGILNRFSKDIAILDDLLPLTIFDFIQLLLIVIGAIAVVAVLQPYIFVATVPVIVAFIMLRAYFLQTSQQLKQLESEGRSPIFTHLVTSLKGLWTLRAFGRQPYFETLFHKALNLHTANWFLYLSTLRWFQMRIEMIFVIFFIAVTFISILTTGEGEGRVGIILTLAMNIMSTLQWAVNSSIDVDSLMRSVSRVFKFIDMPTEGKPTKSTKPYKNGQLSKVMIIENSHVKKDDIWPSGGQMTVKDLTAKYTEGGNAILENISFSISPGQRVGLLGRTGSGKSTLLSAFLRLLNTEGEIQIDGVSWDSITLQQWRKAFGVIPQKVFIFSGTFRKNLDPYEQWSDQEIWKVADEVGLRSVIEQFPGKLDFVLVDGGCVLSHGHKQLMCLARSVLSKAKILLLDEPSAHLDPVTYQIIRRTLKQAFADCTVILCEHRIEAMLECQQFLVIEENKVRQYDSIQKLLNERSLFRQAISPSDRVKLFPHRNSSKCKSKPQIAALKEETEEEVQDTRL
Method: Ussing chamber experiments were performed using human bronchial epithelial (HBE) cells derived from CF subjects heterozygous for F508del and a minimal function CFTR mutation (F508del/MF-HBE) and cultured as previously described (Neuberger T, Burton B, Clark H, Van Goor F Methods Mol Biol 2011:741:39-54). After four days the apical media was removed, and the cells were grown at an air liquid interface for >14 days prior to use.
To isolate the CFTR-mediated short-circuit (ISC) current, F508del/MF-HBE grown on Costar® Snapwell™ cell culture inserts were mounted in an Ussing chamber and the transepithelial ISC was measured under voltage-clamp recording conditions (Vhold=0 mV) at 37° C. The basolateral solution contained (in mM) 145 NaCl, 0.83 K2HPO4, 3.3 KH2PO4, 1.2 MgCl2, 1.2 CaCl2, 10 Glucose, 10 HEPES (pH adjusted to 7.4 with NaOH) and the apical solution contained (in mM) 145 NaGluconate, 1.2 MgCl2, 1.2 CaCl2, 10 glucose, 10 HEPES (pH adjusted to 7.4 with NaOH) and 30 μM amiloride to block the epithelial sodium channel. Forskolin (20 μM) was added to the apical surface to activate CFTR, followed by apical addition of a CFTR inhibitor cocktail consisting of BPO, GlyH-101, and CFTR inhibitor 172 (each at 20 μM final assay concentration) to specifically isolate CFTR currents. The CFTR-mediated ISC (μA/cm^2) for each condition was determined from the peak forskolin response to the steady-state current following inhibition.
The activity of the CFTR corrector compounds on the CFTR-mediated ISC was determined in Ussing chamber studies as described above. The F508del/MF-HBE cell cultures were either incubated with the corrector compounds at a range of concentrations in combination with 33 nM (6R,12R)-17-amino-12-methyl-6,15-bis(trifluoromethyl)-13,19-dioxa-3,4,18-triazatricyclo[12.3.1.12,5]nonadeca-1(18),2,4,14,16-pentaen-6-ol and 18 μM Tezacaftor or were incubated with the corrector compounds at a single fixed concentration of 1 μM in combination with 44 nM (6R,12R)-17-amino-12-methyl-6,15-bis(trifluoromethyl)-13,19-dioxa-3,4,18-triazatricyclo[12.3.1.12,5]nonadeca-1(18),2,4,14,16-pentaen-6-ol and 18 μM Tezacaftor for 18-24 hours at 37° C. and in the presence of 20% human serum. The concentration of corrector compounds with 44 nM or 33 nM (6R,12R)-17-amino-12-methyl-6,15-bis(trifluoromethyl)-13,19-dioxa-3,4,18-triazatricyclo[12.3.1.12,5]nonadeca-1(18),2,4,14,16-pentaen-6-ol and 18 μM Tezacaftor during the 18-24 hours incubations was kept constant throughout the Ussing chamber measurement of the CFTR-mediated ISC to ensure compounds were present throughout the entire experiment. The efficacy and potency of the putative F508del correctors was compared to that of the known Vertex corrector, (14S)-8-[3-(2-{Dispiro[2.0.2.1]heptan-7-yl}ethoxy)-1H-pyrazol-1-yl]-12,12-dimethyl-2λ^6-thia-3,9,11,18,23-pentaazatetracyclo[17.3.1.111,14.05,10]tetracosa-1(22),5,7,9,19(23),20-hexaene-2,2,4-trione, in combination with 18 μM Tezacaftor and 1 μM Ivacaftor.
• Assay A: 0.1 μM to 25 μM, 6 concentrations • Assay B: 0.00001 μM to 25 μM, 12 concentrations • Assay C: 0.026 μM to 25 μM, 6 concentrations • Assay D: Activity at single concentration of 1 μM

[2] = target: T1, CFTR (F508del/MF-HBE cells); assay: Ussing chamber assay of CFTR-mediated short-circuit currents, Assay C (0.026 μM to 25 μM, 6 concentrations); conditions: with 33 nM potentiator and 18 μM Tezacaftor, 20% human serum; for Emax: read-out: C Max activity (%)
Method in brief: (§1)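 F508del/MF-HBE cells grown at air-liquid interface were incubated 18-24 h at 37 °C in 20% human serum with correctors plus 18 μM tezacaftor and a fixed partner compound (33 nM for concentration series, 44 nM at 1 μM). ISC was read at 0 mV after 20 μM forskolin, minus the post-inhibitor current.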

[3] = target: T1, CFTR (F508del/MF-HBE cells); assay: Ussing chamber assay of CFTR-mediated short-circuit currents, Assay D (single concentration of 1 μM); conditions: with 44 nM potentiator and 18 μM Tezacaftor, 20% human serum; for D activity at 1 μM (%): 18-24 hours
Method in brief: as §1

Row | Emax [1] | pEC50 [1] | Emax ([2]; 18-24 hours) | pEC50 [2] | D activity at 1 μM (%) [3] | Emax [2] | D act. at 1 μM (%) [3] | SMILES
1 | > 60% | > 6.00 | – | – | – | – | – | Cc1cccc(C)c1-c1cc2nc(n1)NS(=O)(=O)c1cccc(c1)C(=O)N(Cc1nc3c(cc1F)nc(C(C)C)n3C)[C@H](CC(C)(C)C)CO2 [Compound I-69]
2 | > 60% | > 6.00 | – | – | – | – | – | Cc1cccc(C)c1-c1cc2nc(n1)NS(=O)(=O)c1cccc(c1)C(=O)N(Cc1cnc3oc(C(C)C)c(C)c3n1)[C@H](COC(C)C)CO2 [Compound I-10]
3 | > 60% | > 6.00 | – | – | – | – | – | Cc1cccc(C)c1-c1cc2nc(n1)NS(=O)(=O)c1cccc(c1)C(=O)N(Cc1cnc3oc(C(C)C)cc3n1)[C@H](CC1CCCO1)CO2 (single isomer, unassigned) [Compound I-18]
4 | > 60% | > 6.00 | – | – | – | – | – | Cc1cccc(C)c1-c1cc2nc(n1)NS(=O)(=O)c1cccc(c1)C(=O)N(Cc1cnc3cc(C(C)C)n(C)c3n1)[C@H](CC13CC(C1)C3)CO2 [Compound I-40]
5 | > 60% | > 6.00 | – | – | – | – | – | Cc1cccc(C)c1-c1cc2nc(n1)NS(=O)(=O)c1cccc(c1)C(=O)N(Cc1cnc3oc(C)c(C4CC4)c3n1)[C@H](CCC(C)(C)C)CO2 [Compound I-27]
6 | > 60% | > 6.00 | – | – | – | – | – | Cc1cccc(C)c1-c1cc2nc(n1)NS(=O)(=O)c1cccc(c1)C(=O)N(Cc1cnc3oc(C4CC4)cc3n1)[C@H](CCC1(C)CCC1)CO2 [Compound I-47]
7 | > 60% | > 6.00 | – | – | – | – | – | Cc1cccc(C)c1-c1cc2nc(n1)NS(=O)(=O)c1cccc(c1)C(=O)N(Cc1cnc3oc(C(C)C)cc3n1)[C@H](CC(C)C)CO2 [Compound I-1]
8 | > 60% | > 6.00 | – | – | – | – | – | Cc1cccc(C)c1-c1cc2nc(n1)NS(=O)(=O)c1cccc(c1)C(=O)N(Cc1cnc3oc(C(C)C)c(C#N)c3n1)[C@H](COC(C)C)CO2 [Compound I-91]
9 | > 60% | > 6.00 | – | – | – | – | – | Cc1cccc(C)c1-c1cc2nc(n1)NS(=O)(=O)c1cccc(c1)C(=O)N(Cc1cnc3cc(C(C)C)n(C)c3n1)[C@H](CCC(C)(C)F)CO2 [Compound I-106]
10 | > 60% | > 6.00 | – | – | – | – | – | Cc1cccc(C)c1-c1cc2nc(n1)NS(=O)(=O)c1cccc(c1)C(=O)N(Cc1cnc3cc(C(C)C)n(C)c3n1)[C@@H](CCC1(C)CC1)CO2 (stereo in doubt) [Compound I-72]
11 | > 60% | > 6.00 | – | – | – | – | – | Cc1cccc(C)c1-c1cc2nc(n1)NS(=O)(=O)c1cccc(c1)C(=O)N(Cc1cnc3oc(C(C)C)c(C)c3n1)[C@H](CC1(C)CC1)CO2 [Compound I-17]
12 | > 60% | > 6.00 | – | – | – | – | – | Cc1cccc(C)c1-c1cc2nc(n1)NS(=O)(=O)c1cccc(c1)C(=O)N(Cc1cnc3oc(C4CC4)cc3n1)[C@H](CC1CCCCC1)CO2 [Compound I-42]
13 | – | – | > 60% | > 6.00 | +++ (+++ is >60%) | – | – | Cc1cccc(C2CC2)c1-c1nc2nc(c1C)OC[C@@H](CC(C)(C)C)N(Cc1cnc3oc(C4CC4)cc3n1)C(=O)c1cccc(c1)S(=O)(=O)N2 (atropisomer, axis not shown) [Compound I-152]
14 | – | – | > 60% | 5.52 to 6.00 | +++ (+++ is >60%) | – | – | Cc1cccc(C)c1-c1nc2nc(c1C)OC[C@@H](CC(C)(C)C)N(Cc1ncc3cc(C4CC4)n(C)c3n1)C(=O)c1cccc(c1)S(=O)(=O)N2 [Compound I-265]
15 | – | – | – | > 6.00 | – | > 60% | +++ (+++ is >60%) | Cc1cccc(C)c1-c1cc2nc(n1)NS(=O)(=O)c1cccc(c1)C(=O)N(Cc1cnc3oc(C4(C)CC4)cc3n1)[C@@H](C(C(C)C)C(C)C)CO2 (stereo in doubt) [IV-31]
16 | – | – | > 60% | > 6.00 | +++ (+++ is >60%) | – | – | Cc1cccc(C)c1-c1cc2nc(n1)NS(=O)(=O)c1cccc(c1)C(=O)N(Cc1cnc3cc(C4(C)CC4)n(C)c3n1)[C@H](COC(C)C)CO2 [Compound I-240]
17 | – | – | – | 5.52 to 6.00 | – | > 60% | +++ (+++ is >60%) | Cc1cccc(CC(C)C)c1-c1nc2nc(c1C)OC[C@@H](CC1(C)CC1)N(Cc1cnc3oc(C(C)(C)C)cc3n1)C(=O)c1cccc(c1)S(=O)(=O)N2 (atropisomer, axis not shown) [IV-45]
18 | – | – | > 60% | > 6.00 | +++ (+++ is >60%) | – | – | Cc1cccc(C)c1-c1nc2nc(c1C)OC[C@@H](CC13CC(C1)C3)N(Cc1cnc3oc(C4(C)CC4)cc3n1)C(=O)c1cccc(c1)S(=O)(=O)N2 [Compound I-231]
19 | – | – | – | > 6.00 | – | > 60% | +++ (+++ is >60%) | Cc1cccc(C)c1-c1nc2nc(c1C)OC[C@@H](COC(C)C)N(Cc1cnc3cc(C4(C)CC4)n(C)c3n1)C(=O)c1cccc(c1)S(=O)(=O)N2 [IV-2]
20 | – | – | > 60% | > 6.00 | +++ (+++ is >60%) | – | – | Cc1cccc(C)c1-c1cc2nc(n1)NS(=O)(=O)c1cccc(c1)C(=O)N(Cc1cnc3cc(C(C)(C)C)n(C)c3n1)[C@H](COC(C)C)CO2 [Compound I-185]
21 | – | – | – | > 6.00 | – | > 60% | +++ (+++ is >60%) | Cc1cccc(C)c1-c1cc2nc(n1)NS(=O)(=O)c1cccc(c1)C(=O)N(Cc1cnc3cc(C4(C)CC4)n(C)c3n1)[C@@H](C(C1CCC1)C1CCC1)CO2 (single isomer, unassigned) [IV-20, 11-[di(cyclobutyl)methyl]-6-(2,6-dimethylphenyl)-12-[[5-methyl-6-(1-methylcyclopropyl)pyrrolo[2,3-b]pyrazin-3-yl]methyl]-2,2-dioxo-9-oxa-2λ^6-thia-3,5,12,19-tetrazatricyclo[12.3.1.14,8]nonadeca-1(18),4(19),5,7,14,16-hexaen-13-one]
22 | – | – | > 60% | > 6.00 | +++ (+++ is >60%) | – | – | Cc1cccc(CCC(C)C)c1-c1nc2nc(c1C)OC[C@@H](CC(C)(C)C)N(Cc1cnc3oc(C4CC4)cc3n1)C(=O)c1cccc(c1)S(=O)(=O)N2 (atropisomer, axis not shown) [Compound I-204]
23 | – | – | – | > 6.00 | – | > 60% | +++ (+++ is >60%) | Cc1cccc(CC(C)C)c1-c1nc2nc(c1C)OC[C@@H](CC1(C)CC1)N(Cc1cnc3oc(C(C)C)cc3n1)C(=O)c1cccc(c1)S(=O)(=O)N2 (atropisomer, axis not shown) [IV-46]
24 | – | – | > 60% | > 6.00 | +++ (+++ is >60%) | – | – | Cc1cccc(C)c1-c1nc2nc(c1C)OC[C@@H](C[C@H]1CCCCO1)N(Cc1cnc3cc(C(C)C)n(C)c3n1)C(=O)c1cccc(c1)S(=O)(=O)N2 [Compound I-194]
25 | – | – | > 60% | > 6.00 | +++ (+++ is >60%) | – | – | Cc1cccc(C)c1-c1nc2nc(c1C)OC[C@@H](CC(C)(C)C)N(Cc1cnc3cc(C(C)C)n(C)c3n1)C(=O)c1cccc(c1)S(=O)(=O)N2 [Compound I-168]
